Where a name gives a salt, the structure may show the parent alone. Read-outs that look alike come from different tables or passages of the source.
Target: α7 nAChR (Rattus norvegicus, UniProt Q05941)
Assay: [3H]-MLA competition binding assay in rat brain membranes
Description: Materials and Methods for identifying binding constants: […]

Chain of α7 nAChR (Q05941 23-502): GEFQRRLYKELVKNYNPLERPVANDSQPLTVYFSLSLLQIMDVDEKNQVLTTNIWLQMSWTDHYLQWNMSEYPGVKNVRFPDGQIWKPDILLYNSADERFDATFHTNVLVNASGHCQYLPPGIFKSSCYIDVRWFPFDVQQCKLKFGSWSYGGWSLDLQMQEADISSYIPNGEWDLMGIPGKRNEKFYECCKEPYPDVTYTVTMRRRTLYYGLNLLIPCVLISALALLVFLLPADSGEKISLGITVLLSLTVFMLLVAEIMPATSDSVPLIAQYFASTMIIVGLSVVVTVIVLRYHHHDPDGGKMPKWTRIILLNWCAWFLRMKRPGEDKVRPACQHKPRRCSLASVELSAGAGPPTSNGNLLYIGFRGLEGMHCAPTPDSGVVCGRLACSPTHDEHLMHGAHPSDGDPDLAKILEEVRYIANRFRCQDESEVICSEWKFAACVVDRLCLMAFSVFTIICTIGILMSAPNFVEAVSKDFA

O=C(N[C@H]1CN2CCC1CC2)c1ccc(Oc2ccc(O)cc2)cc1 [Example 1, N-[(3R)-1-azabicyclo[2.2.2]oct-3-yl]-4-(4-hydroxyphenoxy)benzamide]
Ki: 278 nM

CC(=O)Nc1ccc(Oc2ccc(C(=O)N[C@H]3CN4CCC3CC4)cc2)cc1 [Example 2, N-[(3R)-1-azabicyclo[2.2.2]oct-3-yl]-4-(4-acetamidophenoxy)benzamide]
Ki: 270 nM

O=C(N[C@H]1CN2CCC1CC2)c1ccc(Oc2ccccc2)cc1 [Example 3, N-[(3R)-1-azabicyclo[2.2.2]oct-3-yl]-4-phenoxybenzamide]
Ki: 847 nM

O=C(N[C@H]1CN2CCC1CC2)c1ccc(C(=O)c2ccccc2)cc1 [Example 7, N-[(3R)-1-azabicyclo[2.2.2]oct-3-yl]-4-benzoylbenzamide]
Ki: 1580 nM

O=C(N[C@H]1CN2CCC1CC2)c1ccc(Oc2ccc(F)cc2)cc1 [Example 8, N-[(3R)-1-azabicyclo[2.2.2]oct-3-yl]-4-(4-fluorophenoxy)benzamide]
Ki: 910 nM

O=C(N[C@H]1CN2CCC1CC2)c1ccc(Oc2cccc(Cl)c2)cc1 [Example 12, N-[(3R)-1-azabicyclo[2.2.2]oct-3-yl]-4-(3-chlorophenoxy)-benzamide]
Ki: 1590 nM

O=C(N[C@H]1CN2CCC1CC2)c1ccc(Oc2ccc(Cl)cc2)cc1 [Example 13, N-[(3R)-1-azabicyclo[2.2.2]oct-3-yl]-4-(4-chlorophenoxy)-benzamide]
Ki: 1240 nM

COc1cccc(Oc2ccc(C(=O)N[C@H]3CN4CCC3CC4)cc2)c1 [Example 15, N-[(3R)-1-azabicyclo[2.2.2]oct-3-yl]-4-(3-methoxyphenoxy)-benzamide]
Ki (read-out: Ki): 835 nM

COc1ccc(Oc2ccc(C(=O)N[C@H]3CN4CCC3CC4)cc2)cc1 [Example 16, N-[(3R)-1-azabicyclo[2.2.2]oct-3-yl]-4-(4-methoxyphenoxy)-benzamide]
Ki: 414 nM

O=C(N[C@H]1CN2CCC1CC2)c1ccc(Sc2cccc(Cl)c2)cc1 [Example 17, N-[(3R)-1-azabicyclo[2.2.2]oct-3-yl]-4-(3-chlorophenylsulfanyl)benzamide]
Ki: 170 nM

CC1C(NC(=O)c2ccc(Oc3ccccc3)cc2)C2CCN1CC2 (centres unmarked) [Example 23, N-(2-methyl-1-azabicyclo[2.2.2]oct-3-yl)-4-phenoxybenzamide Fumarate]
Ki (read-out: Ki): 1660 to 1980 nM
